Test results taken from patent US12678418B2, “Compositions and methods for the treatment of threatened respiratory failure caused by coronavirus infection and disease” (ENCYT TECHNOLOGIES, INC., priority 2020, dated 2026).
Entries after “also recorded” stand apart in the source; their conditions may differ. Read-outs that look alike come from different tables or passages of the source. Ends that are not written are not given here.

Experiments:
[1] = target: T1, Neu1 sialidase (Mus musculus, UniProt O35657); conditions: cited from earlier work; for inhibition of the LPS-induced sialidase activity: live BMC-2 macrophage cells
T1 construct: […]; endogenous in cells; host or cells: BMC-2 macrophage cells

[2] = target: T1, Neu1 sialidase; type: cell-based; conditions: for inhibition of lipopolysaccharide (LPS) induced sialidase activity: live BMC-2 macrophage cells, 1-2 mM, compared to LPS positive control; for inhibition of sialidase (Neu1) activity associated with TLR ligand treated live macrophage cells: cell surface of macrophage and dendritic cells
Excerpt: Central to this process is that Neu1 and not Neu2,-3 and -4 forms a complex with TLR-2,-3 and -4 on the cell surface of naïve macrophage cells. […] Endotoxin LPS binding to TLR4 induces Neu1 with subsequent activation of NFκB and the production of nitric oxide and proinflammatory IL-6 and TNFα cytokines in primary and macrophage cell lines.

[3] = tested on: Neu1; conditions: live macrophage cell lines and primary bone marrow macrophage cells from wild-type mice, not from Neu1-deficient mice; cited from earlier work
[4] = target: T2, MMP1 (Homo sapiens, UniProt P03956); conditions: read-out: IC50 for MMP1; cited from earlier work
T2 sequence (P03956 100-469): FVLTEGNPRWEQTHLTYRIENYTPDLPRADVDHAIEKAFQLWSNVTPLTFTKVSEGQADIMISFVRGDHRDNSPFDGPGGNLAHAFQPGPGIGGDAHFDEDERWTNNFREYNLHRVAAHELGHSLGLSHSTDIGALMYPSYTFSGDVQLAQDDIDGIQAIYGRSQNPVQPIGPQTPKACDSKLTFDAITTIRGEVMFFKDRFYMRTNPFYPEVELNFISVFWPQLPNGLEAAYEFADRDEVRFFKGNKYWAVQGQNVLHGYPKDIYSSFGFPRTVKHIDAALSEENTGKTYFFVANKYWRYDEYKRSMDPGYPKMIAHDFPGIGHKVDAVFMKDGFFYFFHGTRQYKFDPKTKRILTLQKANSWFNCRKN

[5] = target: MMP13 (Homo sapiens, UniProt P45452); conditions: cited from earlier work
[6] = tested on: Neu1 sialidase; experiment: Sialidase activity in live RAW-blue macrophage cells, 4-MUNANA substrate (Example 1); type: cell-based, mouse; conditions: for inhibition of sialidase activity associated with S-protein: FIG. 2B; for inhibition of sialidase activity associated with S-protein / inhibition of sialidase activity associated with S-protein (UK variant): inhibitor 200 μg/mL, 0.318 mM 4-MUNANA; for inhibition of sialidase activity associated with S-protein (UK variant): FIG. 2C
[7] = tested on: SEAP gene inducible by NF-kB and AP-1 in RAW-Blue cells; experiment: SEAP reporter assay in RAW-Blue cells (Example 2); type: cell-based, mouse; conditions: for expression of SEAP (reflective of NF-kB expression): FIG. 3A-3D, various concentrations
Experimental: RAW-Blue™ cells (mouse macrophage reporter cell line, Invivogen, San Diego CA) derived from RAW 264.7 macrophages were grown in a culture medium under the selection of Zeocin™. The cells stably express a secreted embryonic alkaline phosphatase (SEAP) gene inducible by NF-kB and AP-1 transcription factors. Upon stimulation, RAW-Blue™ cells activate NF-kB and AP-1 leading to the secretion of SEAP, which is detectable and measurable using QUANTI-Blue™, a SEAP detection medium (Invivogen). Supernatants (20 uL) after 24 hr reaction from treated RawBlue cells is added to QuantiBlue reagent (180 uL), and the readout of color reaction was done after 6 hrs. QUANTI-Blue™ is a colorimetric enzyme assay developed to determine the activity of any alkaline phosphatase present in a biological sample (supernatants) and was prepared according to manufacturer's instructions. RAW-Blue™ cells are resistant to Zeocin™ and G418.
A cell suspension of 550,000 RAW-blue cells/mL in fresh growth medium was prepared, and 180 μL of cell suspension (~100,000 cells) was added to each well of a Falcon flat-bottom 96-well plate (Becton Dickinson). After different incubation times, indicated dosages of LPS, bradykinin, angiotensin 1-7, neuropeptide FF, and S-protein alone or together with indicated dose-dependent OP were added to each well. The plates were incubated at 37° C. in a 5% CO2 incubator for 18-24 h. 180 μL of QUANTI-Blue™ solution was added to each well of a flat-bottom 96-well plate, followed by 20 μL of supernatant from stimulated RAW-blue cells. The plate was incubated for 30 min to 3 h at 37° C. and the SEAP levels were determined using a spectrophotometer at 620-655 nm. Each experiment was performed in triplicate.

[8] = tested on: NFκB activation, nitric oxide, IL-6 and TNFα in primary or macrophage cell lines; experiment: LPS/TLR ligand induced NFκB activation, nitric oxide and pro-inflammatory cytokines in macrophage cells; type: cell-based; conditions: macrophage and dendritic cells
Excerpt: Thus, there is evidence that the activation of Neu1 sialidase in complex with TLR-2,-3 and -4 receptors on the cell surface of macrophages is inhibited by the neuraminidase inhibitor OP. […] On the basis that Mas GPCR potentiates receptor biased-induced TLR transactivation via NMBR-Neu1-MMP9 crosstalk on the cell surface alveolar macrophages, then OP will inhibit the pro-inflammatory responses in the lungs and reduce the inflammatory process.

[9] = cited from earlier work
[10] = tested on: NFκB activation, nitric oxide, IL-6 and TNFα in primary or macrophage cell lines; conditions: cited from earlier work
[11] = target: carboxylesterase (Homo sapiens, UniProt P23141); conditions: previously determined; cited from earlier work
Chain of carboxylesterase (P23141 18-567): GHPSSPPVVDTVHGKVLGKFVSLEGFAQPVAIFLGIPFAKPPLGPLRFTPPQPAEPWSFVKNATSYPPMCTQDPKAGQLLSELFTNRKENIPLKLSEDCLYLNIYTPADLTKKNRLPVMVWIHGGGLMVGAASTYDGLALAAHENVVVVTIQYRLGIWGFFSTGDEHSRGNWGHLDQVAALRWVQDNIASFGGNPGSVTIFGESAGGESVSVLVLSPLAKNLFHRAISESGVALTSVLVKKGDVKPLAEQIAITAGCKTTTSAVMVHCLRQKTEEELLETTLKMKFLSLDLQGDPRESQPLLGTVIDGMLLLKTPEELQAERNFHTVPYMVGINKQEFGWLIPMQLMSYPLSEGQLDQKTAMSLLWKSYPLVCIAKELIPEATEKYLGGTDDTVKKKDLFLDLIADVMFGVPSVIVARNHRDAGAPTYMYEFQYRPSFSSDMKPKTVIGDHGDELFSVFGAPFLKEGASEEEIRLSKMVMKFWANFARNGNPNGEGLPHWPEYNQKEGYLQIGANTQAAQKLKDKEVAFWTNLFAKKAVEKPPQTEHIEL

[12] = target: LPS induced sialidase activity in live BMA macrophage cells (Mus musculus, UniProt O35657); conditions: clopidogrel bisulfate 280 μM and 500 μM for 2 min, 5 μg/ml LPS, 400 μM OP
[13] = target: MMP3 (Homo sapiens, UniProt P08254); conditions: cited from earlier work
Chain of MMP3 (P08254 100-477, species assumed): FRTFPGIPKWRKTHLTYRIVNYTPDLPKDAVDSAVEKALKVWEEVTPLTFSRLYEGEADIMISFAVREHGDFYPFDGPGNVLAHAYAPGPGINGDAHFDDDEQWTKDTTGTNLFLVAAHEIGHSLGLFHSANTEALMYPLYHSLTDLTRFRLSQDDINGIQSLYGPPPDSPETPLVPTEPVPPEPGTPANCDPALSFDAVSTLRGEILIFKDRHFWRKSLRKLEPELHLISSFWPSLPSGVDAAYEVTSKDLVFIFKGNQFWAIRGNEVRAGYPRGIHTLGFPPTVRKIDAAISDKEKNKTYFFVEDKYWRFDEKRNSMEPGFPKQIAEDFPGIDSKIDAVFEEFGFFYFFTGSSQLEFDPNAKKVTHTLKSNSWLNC

[14] = target: MMP9 (Homo sapiens, UniProt P14780); conditions: cited from earlier work
Chain of MMP9 (P14780 94-707, species assumed): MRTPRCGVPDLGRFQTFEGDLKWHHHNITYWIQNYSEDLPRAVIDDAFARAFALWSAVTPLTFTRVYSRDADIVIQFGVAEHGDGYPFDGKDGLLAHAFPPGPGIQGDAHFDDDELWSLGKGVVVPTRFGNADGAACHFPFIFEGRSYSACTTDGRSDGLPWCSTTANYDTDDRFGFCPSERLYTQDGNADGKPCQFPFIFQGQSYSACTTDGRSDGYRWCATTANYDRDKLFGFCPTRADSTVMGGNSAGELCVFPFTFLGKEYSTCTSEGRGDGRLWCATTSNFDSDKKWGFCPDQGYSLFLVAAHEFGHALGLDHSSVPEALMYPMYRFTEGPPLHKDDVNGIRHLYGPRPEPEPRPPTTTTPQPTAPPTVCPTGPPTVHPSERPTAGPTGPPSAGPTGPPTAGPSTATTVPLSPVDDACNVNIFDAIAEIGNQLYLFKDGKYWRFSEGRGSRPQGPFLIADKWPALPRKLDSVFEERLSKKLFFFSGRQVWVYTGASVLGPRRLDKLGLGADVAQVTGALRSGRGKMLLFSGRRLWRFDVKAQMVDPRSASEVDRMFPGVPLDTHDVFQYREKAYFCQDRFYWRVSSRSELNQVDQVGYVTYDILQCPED

[15] = target: MMP7 (Homo sapiens, UniProt P09237); conditions: read-out: IC50 for MMP7; cited from earlier work
Chain of MMP7 (P09237 95-267, species assumed): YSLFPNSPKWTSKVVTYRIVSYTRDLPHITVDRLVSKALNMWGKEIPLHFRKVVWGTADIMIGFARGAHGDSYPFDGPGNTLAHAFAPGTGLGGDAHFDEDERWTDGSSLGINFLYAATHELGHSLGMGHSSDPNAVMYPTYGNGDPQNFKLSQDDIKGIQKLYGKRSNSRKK

[16] = target: T3, human Neu3 sialidase (Homo sapiens, UniProt Q9UQ49); conditions: micromolar range; cited from earlier work
T3 sequence (Q9UQ49 1-428): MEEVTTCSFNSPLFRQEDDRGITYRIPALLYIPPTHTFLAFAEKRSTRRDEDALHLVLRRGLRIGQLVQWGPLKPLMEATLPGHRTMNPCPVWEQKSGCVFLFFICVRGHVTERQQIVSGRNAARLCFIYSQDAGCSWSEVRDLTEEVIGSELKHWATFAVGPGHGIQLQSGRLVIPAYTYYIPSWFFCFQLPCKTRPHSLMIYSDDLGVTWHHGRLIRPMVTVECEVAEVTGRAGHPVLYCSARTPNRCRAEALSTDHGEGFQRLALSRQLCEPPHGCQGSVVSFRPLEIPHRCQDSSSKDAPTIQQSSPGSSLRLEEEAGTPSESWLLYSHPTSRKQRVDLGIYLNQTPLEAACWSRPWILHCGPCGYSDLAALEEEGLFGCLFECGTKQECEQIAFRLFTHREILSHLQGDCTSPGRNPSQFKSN

[17] = tested on: Neu1 sialidase; conditions: 2 mM, lysates from mature dendritic cells; cited from earlier work
[18] = tested on: Neu3 sialidase; conditions: 2 mM, lysates from mature dendritic cells; cited from earlier work
[19] = target: T4, neuraminidase 1 (Homo sapiens, UniProt Q99519); experiment: Neu-1 activity in live PANC-1 cells stimulated with EGF; type: cell-based; conditions: FIG. 5; aspirin 1.6 mM-6.4 mM, 30 ng/mL EGF, 0.318 mM 4-MUNANA
T4 construct: endogenous in cells; host or cells: PANC-1
Experimental: Live PANC-1 cells were pre-treated with increasing concentrations of aspirin (1.6 mM-6.4 mM), followed by stimulation with 30 ng/mL of EGF to initiate Neu-1 activity. 0.318 mM 4-MUNANA substrate was added to quantify Neu-1 activity.

[20] = target: mammalian neuraminidase 1 (Homo sapiens, UniProt Q99519); experiment: Aspirin with OP on mammalian neuraminidase 1

CCC(CC)[C@H](NC(C)=O)[C@@H]1C[C@@H](C(=O)O)C[C@H]1N=C(N)N [BCX1827]
inhibition of the LPS-induced sialidase activity [1]: limited significant inhibition | inhibition of lipopolysaccharide (LPS) induced sialidase activity [2]: limited effect

angiotensin-2: GPCR agonist, printed as 'angiotensin-1 and -2' (DRVYIHPF; Angiotensin-2; UniProt P01019 25-32, looked up)
induction of Neu1 activity [3]: induce Neu1 activity

CCN(CC)Cc1cc(C)c(N(Cc2ccccc2)S(=O)(=O)c2ccc(OC)cc2)c(C(=O)NO)c1 [MMP9 inhibitor]
IC50 [4]: 1050 nM | IC50 [5]: 113 nM | inhibition of sialidase activity associated with S-protein [6]: inhibited | inhibition of sialidase activity associated with S-protein (UK variant) [6]: inhibited

N[C@@H](CS)C(=O)N1CCn2cc(-c3ccccc3)nc2[C@@H]1CC1CCCCC1 [BIM-46174]
inhibition of sialidase activity triggered by recombinant S protein and LPS [6]: inhibited | inhibition of sialidase activity associated with S-protein [6]: inhibited | inhibition of sialidase activity associated with S-protein (UK variant) [6]: inhibited

CC(=O)N[C@H]1[C@H]([C@H](O)[C@H](O)CO)OC(C(=O)O)=C[C@@H]1O [DANA, 2-deoxy-2,3-dehydro-N-acetylneuraminic acid]
inhibition of the LPS-induced sialidase activity [1]: limited significant inhibition | inhibition of lipopolysaccharide (LPS) induced sialidase activity [2]: limited effect

CCOC(=O)C1=C[C@@H](OC(CC)CC)[C@H](NC(C)=O)[C@@H](N)C1.O=P(O)(O)O [OP, (3R,4R,5S)-4-acetylamino-5-amino-3-(1-ethylpropoxy)1-cyclohexene-1-carboxylic acid, ethyl ester, phosphate (1:1)]
OP blockage of LPS-induced Neu1 sialidase activity after clopidogrel pretreatment ([1]; BMC-2 cells pretreated with anti-carboxylesterase agent clopidogrel): not affected | inhibition of the LPS-induced sialidase activity [1]: completely blocks | inhibition of S-protein triggered activity by SEAP reporter assay ([7]; FIG. 4C, S-protein 10 ug/mL, OP at indicated concentrations): significantly decreased; also recorded: inhibited sialidase activity in a dose dependent manner | block of TLR ligand induced NFkB activation, nitric oxide (NO) production and pro-inflammatory cytokines [8]: blocks | solubility in water [9]: soluble in water | inhibition of sialidase activity triggered by recombinant S protein and LPS [6]: blocked | inhibition of sialidase activity associated with S-protein [6]: inhibited | inhibition of sialidase activity associated with S-protein (UK variant) [6]: inhibited | inhibition of sialidase (Neu1) activity associated with TLR ligand treated live macrophage cells [2]: most potent; also recorded: potent inhibitor | inhibition of sialidase (Neu1) activity associated with TLR ligand treated live macrophage cells ([2]; listed as oseltamivir phosphate): specifically inhibits | inhibition of endotoxin LPS induced NFκB activation and production of nitric oxide and pro-inflammatory IL-6 and TNFα cytokines [10]: significantly inhibited

angiotensin 1-7 (DRVYIHP; Angiotensin 1-7; UniProt P01019 25-31, looked up)
expression of SEAP (reflective of NF-kB expression) [7]: triggered increased expression of SEAP | induction of sialidase activity ([6]; FIG. 2A, agonist 20 μg/mL): induces Sialidase activity

COC(=O)[C@H](c1ccccc1Cl)N1CCc2sccc2C1 [clopidogrel]
inhibition of the hydrolysis of OP by carboxylesterase [11]: ≤ 90% | effect on OP's capacity to inhibit LPS induced sialidase activity [12]: no effect

CNC(=O)[C@H](Cc1c[nH]c2ccccc12)NC(=O)[C@@H](CC(=O)NO)CC(C)C [Galardin]
IC50 [13]: 27 nM

lysophosphatidic acid
induction of Neu1 activity [3]: induce Neu1 activity

CC(C)CCC[C@@H](C)[C@H]1CC[C@H]2[C@@H]3CC=C4C[C@@H](O)CC[C@]4(C)[C@H]3CC[C@]12C [cholesterol]
induction of Neu1 activity [3]: induce Neu1 activity

C1CNCCN1 [PIPZ]
IC50 [14]: 2.7 nM | IC50 [4]: 24 nM | IC50 [15]: 30 nM | IC50 [13]: 18.4 nM

CC(=O)N[C@H]1[C@H]([C@H](O)[C@H](O)CO)OC(C(=O)O)=C[C@@H]1N=C(N)N [zanamivir, 4-guanidino-Neu5Ac2en]
inhibition of the LPS-induced sialidase activity [1]: limited significant inhibition | inhibition of human Neu3 sialidase [16]: significantly inhibited | inhibition of Neu1 sialidase activity [17]: completely inhibited | inhibition of lipopolysaccharide (LPS) induced sialidase activity [2]: limited effect | inhibition of Neu3 sialidase activity [18]: completely inhibited

CC(=O)Oc1ccccc1C(=O)O [aspirin]
reduction in Neu-1 activity [19]: substantial reduction | inhibition of mammalian neuraminidase 1 by aspirin together with OP [20]: potentiates the ability of OP to inhibit mammalian neuraminidase 1

thrombin
induction of Neu1 activity [3]: not

angiotensin-1 (DRVYIHPFHL; Angiotensin-1; UniProt P01019 25-34, looked up) [GPCR agonist]
induction of Neu1 activity [3]: induce Neu1 activity

neuropeptide FF (FLFQPQRF; ends and bridges not checked; UniProt O15130 69-76, looked up) [MAS agonist]
expression of SEAP (reflective of NF-kB expression) [7]: triggered increased expression of SEAP
